Data taken from PubChem BioAssay AID651895 (Broad Institute, 2012).
The source made the active and inactive calls.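 Rule for the calls: active = IC50 under 100 times the reference toxin's IC50 in the same rat muscle cell viability test; inactive = the rest.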

Test system: L-6 rat myoblast viability, Alamar blue, 72 h
Experiment: L-6 rat myoblast cytotoxicity, dose response, counter-screen for T. cruzi inhibitor project, cell-based, plate reader, dry powder (AID 651895)

With `C[C@@H]1CN([C@@H](C)CO)C(=O)c2cccc(NC(=O)c3ccncc3)c2O[C@H]1CN(C)Cc1ccc(Oc2ccccc2)cc1` the IC50 was 14.8 µM (inactive).
